Some test systems named below: ACHN renal; MOLT-4 leukemia; UACC-257 melanoma; CAKI-1 renal; SF-295 CNS; HT29 colon; OVCAR-5 ovarian; COLO 205 colon; SK-MEL-2 melanoma.
Holding throughout (experiment): NCI tumour cell line growth inhibition, 48 h

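Method: 48-hour compound exposure of cells in 96-well plates, five concentrations, linear interpolation of endpoints. The concentration for 50% growth inhibition is given as GI50. TGI is the concentration that stops growth completely.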

Our source for the TGI and GI50 values is PubChem BioAssay (NCI).

As for `COc1cc(=O)oc(/C=C/C=O)c1C`, the TGI in the test with ACHN renal was 39.6 µM; with MOLT-4 leukemia, 77.3 µM; in the test with UACC-257 melanoma, 35.4 µM; with CAKI-1 renal it was 79.9 µM; in the test on SF-295 CNS it was 30.3 µM; with HT29 colon, 40.7 µM. The TGI in the test on OVCAR-5 ovarian was greater than 100 µM; with COLO 205 colon it was 31.6 µM.

Turning to `Nc1ncnc2c1ncn2C1OC(CSC(F)(F)F)C(O)C1O` (stereo unspecified), the TGI with ACHN renal, in the test on MOLT-4 leukemia, in the test with UACC-257 melanoma, in the test on CAKI-1 renal, in the test on SF-295 CNS and with HT29 colon was greater than 100 µM each time. The TGI with SK-MEL-2 melanoma, with OVCAR-5 ovarian and with COLO 205 colon was greater than 100 µM each time.

Consider `CCC1=C(C)/C(=C/c2[nH]c(C(Br)Br)c(CC)c2C)N=C1C(Br)Br`, for which the TGI in the test with ACHN renal is greater than 100 µM; in the test on MOLT-4 leukemia, 27.4 µM; in the test on UACC-257 melanoma, 57.6 µM; in the test with SF-295 CNS, 98.2 µM; in the test on HT29 colon, greater than 100 µM; with SK-MEL-2 melanoma it was greater than 100 µM. Further, the TGI in the test on OVCAR-5 ovarian is greater than 100 µM; in the test on COLO 205 colon, 21 µM.

Consider `O=C(CC(=O)c1ccc([N+](=O)[O-])cc1)C(=O)Nc1nccs1`, for which the TGI in the test with ACHN renal, with MOLT-4 leukemia, in the test on CAKI-1 renal, in the test with HT29 colon, in the test with SK-MEL-2 melanoma and in the test with OVCAR-5 ovarian was greater than 100 µM throughout. Besides, the TGI with COLO 205 colon was greater than 100 µM.

In the case of `CCCCSN1C(=O)c2ccccc2C1=S`, the TGI in the test with ACHN renal was greater than 100 µM; in the test on MOLT-4 leukemia it was 50.3 µM; in the test with UACC-257 melanoma it was greater than 100 µM; in the test with CAKI-1 renal, greater than 100 µM; in the test with SF-295 CNS, greater than 100 µM; in the test on HT29 colon, greater than 100 µM. Also, the TGI in the test with SK-MEL-2 melanoma, with OVCAR-5 ovarian and with COLO 205 colon was greater than 100 µM throughout.

As for `Cc1ccc(NC(=O)CC/C(CC(=O)C(C)(C)C)=N/NC(=O)C(N)=O)cc1C`, the TGI with ACHN renal, with MOLT-4 leukemia, in the test on UACC-257 melanoma, with CAKI-1 renal, in the test on SF-295 CNS and in the test on HT29 colon was greater than 100 µM throughout. The TGI with SK-MEL-2 melanoma, with OVCAR-5 ovarian and in the test with COLO 205 colon was greater than 100 µM each time.

Take `NC(N)=NS(=O)(=O)c1ccc(Nc2c3ccccc3nc3c(C(=O)N4CCN(CCO)CC4)cccc23)cc1`: the TGI in the test on ACHN renal, in the test on MOLT-4 leukemia, with UACC-257 melanoma, with CAKI-1 renal, in the test on SF-295 CNS and in the test on HT29 colon was greater than 100 µM throughout. Also, the TGI in the test with SK-MEL-2 melanoma, in the test on OVCAR-5 ovarian and in the test on COLO 205 colon was greater than 100 µM in each case.

Take `N#CCCN(CCC#N)C(=O)c1cccc(C(=O)N(CCC#N)CCC#N)c1`: the TGI in the test with ACHN renal was greater than 100 µM; with MOLT-4 leukemia it was greater than 100 µM; in the test with UACC-257 melanoma it was greater than 100 µM; in the test on CAKI-1 renal, greater than 100 µM; with SF-295 CNS, greater than 100 µM; in the test with HT29 colon, 35.2 µM. Besides, the TGI with SK-MEL-2 melanoma, in the test with OVCAR-5 ovarian and with COLO 205 colon was greater than 100 µM in each case.

Turning to `N#CNC(N)=NCCO`, the TGI in the test on ACHN renal, with MOLT-4 leukemia, in the test with UACC-257 melanoma, in the test with CAKI-1 renal, with SF-295 CNS and in the test with HT29 colon was greater than 100 µM throughout. Besides, the TGI with SK-MEL-2 melanoma, in the test on OVCAR-5 ovarian and with COLO 205 colon was greater than 100 µM each time.

Consider `COc1ccc(CN2C(=O)C(Cc3cc(OC)c(OC)c(C)c3OC)NC(=O)/C2=C/c2cc(OC)c(OC)c(C)c2OC)cc1` (stereo unspecified), for which the TGI was greater than 100 µM in the test on ACHN renal; 60.6 µM with MOLT-4 leukemia; greater than 100 µM in the test with UACC-257 melanoma; greater than 100 µM in the test on SF-295 CNS; 66.2 µM in the test on HT29 colon; 43.2 µM with SK-MEL-2 melanoma. Besides, the values for the TGI in the test with OVCAR-5 ovarian and in the test on COLO 205 colon were greater than 100 µM and 47.4 µM, respectively.

As to `[C-]#[O+].[Cl][Sn]([Cl])[Cl].[Cl][Sn]([Cl])[Cl].[Pt].c1ccc([PH+](c2ccccc2)c2ccccc2)cc1.c1ccc([PH+](c2ccccc2)c2ccccc2)cc1`, the GI50 with ACHN renal is 26.4 µM; with UACC-257 melanoma, 37.7 µM; in the test with SF-295 CNS, 71.5 µM; with HT29 colon, greater than 100 µM; with SK-MEL-2 melanoma, 34 µM; with OVCAR-5 ovarian it was 88 µM. Moreover, the GI50 with COLO 205 colon is greater than 100 µM. Further, the TGI in the test on ACHN renal, in the test on UACC-257 melanoma, in the test on SF-295 CNS, in the test on HT29 colon, in the test on SK-MEL-2 melanoma and in the test with OVCAR-5 ovarian was greater than 100 µM in each case. This compound also returned a TGI in the test on COLO 205 colon greater than 100 µM.

As to `O=C(Cc1nc2ccccc2c(=O)n1-c1c(Cl)cccc1Cl)c1ccncc1`, the TGI was 42.4 µM with ACHN renal; 42.2 µM in the test with MOLT-4 leukemia; 54.3 µM in the test on UACC-257 melanoma; 86.1 µM with CAKI-1 renal; 36.5 µM in the test on SF-295 CNS; 45.8 µM with HT29 colon. Moreover, the TGI in the test on SK-MEL-2 melanoma worked out at 46.3 µM; with COLO 205 colon it was 33.6 µM.

Regarding `CN(C)c1ccc2c(c1)CN1C(=O)c3ccccc3C1=N2`, the GI50 in the test on ACHN renal, with MOLT-4 leukemia, with UACC-257 melanoma, with SF-295 CNS, in the test on HT29 colon and with SK-MEL-2 melanoma was greater than 100 µM each time. In addition, the GI50 in the test on OVCAR-5 ovarian and with COLO 205 colon was greater than 100 µM in each case. Also, the TGI in the test on ACHN renal, in the test on MOLT-4 leukemia, in the test on UACC-257 melanoma, in the test with SF-295 CNS, with HT29 colon and with SK-MEL-2 melanoma was greater than 100 µM each time. Moreover, the TGI in the test on OVCAR-5 ovarian and in the test with COLO 205 colon was greater than 100 µM in each case.

Take `CC1(C)C(c2ccccc2)=NN(O)c2ccccc21`: the TGI in the test with MOLT-4 leukemia, with UACC-257 melanoma, with CAKI-1 renal, in the test with SF-295 CNS, in the test on HT29 colon and in the test on SK-MEL-2 melanoma was greater than 100 µM each time. The TGI with OVCAR-5 ovarian and in the test on COLO 205 colon was greater than 100 µM each time.
